Experimental data taken from patent US20230002439A1, “CRYSTALLINE FORMS OF VAMOROLONE” (ReveraGen BioPharma, Inc., priority 2021, published 2023).

Legend:
[1] = DSC thermal treatment and hot-stage pXRD (Form II vs. Form I); type: physicochemical
Protocol: The melting of vamorolone was performed in a DSC apparatus at a heating rate of 10° C./min. The DSC furnace was programmed to cool at 10° C./min down to −40° C. A second heating cycle at a heating rate of 10° C./min was performed.
The solid samples were examined using an X-ray diffractometer (Bruker D8 advance). The system is equipped with highly-parallel x-ray beams (Göbel Mirror) and a LynxEye detector. The samples were scanned from 3 to 40° 20 at a step size of 0.02° 20 and a time per step of 19.70 seconds. The tube voltage and current were 45 kV and 40 mA, respectively. The sample was transferred from the sample container onto a zero background XRD-holder and gently ground.
DSC analyses were conducted on a TA Instruments Q200. The calibration standard was indium. A sample of 2.0 mg in weight was placed into a TA DSC pan, and weight was accurately recorded. Crimped pans were used for analysis, and the samples were heated under nitrogen (50 mL/min) at a rate of 10° C./min, up to a final temperature of 260° C.
However, the pXRD pattern obtained after the sample was cooled down to room temperature is similar to the initial material. […] It is estimated from DSC and hot-stage pXRD data that the transition temperature could well be above 100° C. […]

[2] = Thermogravimetric analysis (TGA); type: physicochemical
Protocol: TGA analyses were carried out on a TA Instruments TGA Q500. Approximately 2.0 mg of samples were placed in a tared platinum or aluminum pan, automatically weighed, and inserted into the TGA furnace. The samples were heated at 10° C./min to a final temperature of 300° C. The purge gas is nitrogen for balance at 40 mL/min and the sample at 60 mL/min, respectively.

glucocorticoid receptor = biological target: T1, glucocorticoid receptor (Homo sapiens, UniProt P04150); details: pre-clinical data, background statement; cited from earlier work
T1 sequence (P04150 1-777): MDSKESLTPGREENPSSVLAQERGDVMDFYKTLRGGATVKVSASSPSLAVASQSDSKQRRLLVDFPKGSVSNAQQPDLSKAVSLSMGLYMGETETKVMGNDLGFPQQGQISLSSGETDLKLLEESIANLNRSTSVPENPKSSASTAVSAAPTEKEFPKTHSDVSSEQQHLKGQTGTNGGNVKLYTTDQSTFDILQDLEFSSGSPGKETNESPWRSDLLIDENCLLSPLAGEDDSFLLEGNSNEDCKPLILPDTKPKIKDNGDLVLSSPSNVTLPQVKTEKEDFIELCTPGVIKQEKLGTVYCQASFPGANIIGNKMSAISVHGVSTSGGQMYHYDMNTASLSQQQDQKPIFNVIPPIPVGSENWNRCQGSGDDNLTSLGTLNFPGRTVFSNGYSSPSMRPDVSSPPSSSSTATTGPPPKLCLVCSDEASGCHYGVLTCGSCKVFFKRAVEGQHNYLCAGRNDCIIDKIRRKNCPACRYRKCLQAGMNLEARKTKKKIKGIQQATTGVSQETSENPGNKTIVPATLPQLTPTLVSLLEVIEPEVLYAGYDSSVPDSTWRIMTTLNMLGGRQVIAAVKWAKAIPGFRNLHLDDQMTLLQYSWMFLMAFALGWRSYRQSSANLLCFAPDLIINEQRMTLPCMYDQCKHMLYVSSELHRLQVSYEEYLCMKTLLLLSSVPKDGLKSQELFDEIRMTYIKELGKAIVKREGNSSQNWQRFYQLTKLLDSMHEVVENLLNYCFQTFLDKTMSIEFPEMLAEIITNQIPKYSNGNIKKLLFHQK

[3] = system: mouse models of inflammatory states; details: multiple mouse models; including loss of growth stunting and loss of bone fragility; cited from earlier work

C[C@@H]1C[C@H]2[C@@H]3CCC4=CC(=O)C=C[C@]4(C)C3=CC[C@]2(C)[C@@]1(O)C(=O)CO [Form II, 17α,21-dihydroxy-16α-methylpregna-1,4,9(11)-triene-3,20-dione]
relative stability of polymorphs ([1]; above the transition temperature): most stable

C[C@@H]1C[C@H]2[C@@H]3CCC4=CC(=O)C=C[C@]4(C)C3=CC[C@]2(C)[C@@]1(O)C(=O)CO [Form VII, 17α,21-dihydroxy-16α-methylpregna-1,4,9(11)-triene-3,20-dione]
TGA weight loss ([2]; below about 225° C.): less than 1%

C[C@@H]1C[C@H]2[C@@H]3CCC4=CC(=O)C=C[C@]4(C)C3=CC[C@]2(C)[C@@]1(O)C(=O)CO [vamorolone, 17α,21-dihydroxy-16α-methylpregna-1,4,9(11)-triene-3,20-dione]
binding to the glucocorticoid receptor (glucocorticoid receptor): binds potently | side effect profiles [3]: dramatically improves side effect profiles

C[C@@H]1C[C@H]2[C@@H]3CCC4=CC(=O)C=C[C@]4(C)C3=CC[C@]2(C)[C@@]1(O)C(=O)CO [Form IV, 17α,21-dihydroxy-16α-methylpregna-1,4,9(11)-triene-3,20-dione]
TGA weight loss ([2]; FIG. 7, temperature not stated): < 0.5% | TGA weight loss ([2]; below about 200° C.): less than 0.5%

C[C@@H]1C[C@H]2[C@@H]3CCC4=CC(=O)C=C[C@]4(C)C3=CC[C@]2(C)[C@@]1(O)C(=O)CO [Form I, 17α,21-dihydroxy-16α-methylpregna-1,4,9(11)-triene-3,20-dione]
relative stability of polymorphs ([1]; below the transition temperature): most stable form
